Laboratory results published in US20090005250A1, “Substituted 2,4-diamino-1,3,5-triazines, processes for their use as herbicides and crop growth regulators” (Bayer CropScience AG, priority 2006, published 2009).

Experiments:
[1] = test system: harmful plants such as Stellaria media, Lolium multiflorum, Amaranthus retroflexus, Sinapis alba, Avena sativa and Setaria viridis; experiment: Pre-emergence herbicidal action (greenhouse pot test); format: in vivo, mono- and dicotyledonous weed plants; settings: application rate of 500 g or less of active substance per hectare; scored visually after 3 to 4 weeks in comparison to untreated controls
Text: Seeds or rhizome pieces of mono- and dicotyledonous weed plants were placed in sandy loam in plastic pots and covered with soil. The inventive compounds, which have been formulated in the form of wettable powders or emulsion concentrates, were then applied to the surface of the covering soil as an aqueous suspension or emulsion in different dosages with an application rate of from 600 to 800 l/ha of water (converted). After the treatment, the pots were placed in a greenhouse and kept under good growth conditions for the weeds. The plant or emergence damage is scored visually after the emergence of the test plants after an experiment time of from 3 to 4 weeks in comparison to untreated controls. […] For example, the examples no.

[2] = test system: harmful plants such as Sinapis alba, Echinochloa crus-galli, Lolium multiflorum, Stellaria media, Cyperus iria, Amaranthus retroflexus, Setaria viridis, Avena …; experiment: Post-emergence herbicidal action (greenhouse pot test); format: in vivo, mono- and dicotyledonous weeds; settings: application rate of 500 g and less of active substance per hectare; treated at three-leaf stage; scored visually after approx. 3 to 4 weeks
Method: Seeds or rhizome pieces of mono- and dicotyledonous weeds were placed in sandy loam in plastic pots, covered with soil and grown in a greenhouse under good growth conditions. Three weeks after the sowing, the test plants were treated at the three-leaf stage. The inventive compounds formulated as spray powders or as emulsion concentrates were sprayed onto the green plant parts in various dosages with an application rate of from 600 to 800 l/ha of water (converted). After the test plants had been left to stand in the greenhouse under optimal growth conditions for approx. 3 to 4 weeks, the action of the preparations was scored visually in comparison to untreated controls. The inventive compositions also had good post-emergence herbicidal activity against a wide spectrum of economically important gramineous and broadleaf weeds. For example, examples no.

SMILES | herbicidal action, pre-emergence method [1] | herbicidal action, post-emergence method [2]
CC(C)(F)c1nc(N=CN2CCOCC2)nc(NC(C2CC2)C2CC2)n1 [Example 6-199] | very good herbicidal action | very good herbicidal action
Nc1nc(NC(C2CC2)C2CC2)nc(C(F)F)n1 [Example 1-651] | very good herbicidal action | very good herbicidal action
CC(C)C(Nc1nc(N)nc(C(C)(C)F)n1)C1CC1 (stereo not shown) [Example 1-475] | very good herbicidal action | very good herbicidal action
CC(C)(F)c1nc(N)nc(NC2CCC3CC32)n1 (stereo not shown) [Example 7-79] | very good herbicidal action | very good herbicidal action
CN(C)C=Nc1nc(NC(C2CC2)C2CC2)nc(C(C)(C)F)n1 [Example 5-201] | very good herbicidal action | very good herbicidal action
CCC(F)c1nc(N)nc(NC(C2CC2)C2CC2)n1 (stereo not shown) [Example 1-414] |  | very good herbicidal action
Nc1nc(NC(C2CC2)C2CC2)nc(C2(F)CC2)n1 [Example 1-572] | very good herbicidal action | very good herbicidal action
CC(F)c1nc(N)nc(NC(C2CC2)C2CC2)n1 (stereo not shown) [Example 1-335] | very good herbicidal action | very good herbicidal action
Cc1nc(N)nc(NC(C2CC2)C2CC2)n1 [Example 1-98] | very good herbicidal action | 
CC(C)(F)c1nc(N)nc(NC(C2CCC2)C2CCC2)n1 [Example 1-499] | very good herbicidal action | 
Nc1ncnc(NC(C2CC2)C2CC2)n1 [Example 1-19] | very good herbicidal action | very good herbicidal action
CC(=O)Nc1nc(NC(C2CC2)C2CC2)nc(C(C)(C)F)n1 [Example 2-199] | very good herbicidal action | very good herbicidal action
CCC(F)c1nc(N)nc(NC(C2CCC2)C2CCC2)n1 (stereo not shown) [Example 1-420] | very good herbicidal action | very good herbicidal action
CC(F)c1nc(N)nc(NC(C(C)C)C2CC2)n1 (stereo not shown) [Example 1-317] | very good herbicidal action | very good herbicidal action
CC(C)(F)c1nc(N)nc(NC(C2CC2)C2CC2)n1 [Example 1-493] | very good herbicidal action | very good herbicidal action
Nc1nc(NC(C2CC2)C2CC2)nc(C2CC2)n1 [Example 1-256] |  | very good herbicidal action
